In publication PMC7956620 (Molecules, 2021):
Numbering of substitutions follows the chain as printed.

Assays:
[1] = target: T1, 5-HT3A receptor Y91A mutant (Homo sapiens, UniProt P46098, Y86A); assay: two-electrode voltage clamp, Y91A mutant receptor in Xenopus oocytes; format: cell-based; details: 100 µM chanoclavine, read-out: Inhibition Percentage (%)
T1 construct: host or cells: Xenopus laevis oocytes injected with in vitro transcribed mRNA
T1 sequence (P46098 24-478 Y86A): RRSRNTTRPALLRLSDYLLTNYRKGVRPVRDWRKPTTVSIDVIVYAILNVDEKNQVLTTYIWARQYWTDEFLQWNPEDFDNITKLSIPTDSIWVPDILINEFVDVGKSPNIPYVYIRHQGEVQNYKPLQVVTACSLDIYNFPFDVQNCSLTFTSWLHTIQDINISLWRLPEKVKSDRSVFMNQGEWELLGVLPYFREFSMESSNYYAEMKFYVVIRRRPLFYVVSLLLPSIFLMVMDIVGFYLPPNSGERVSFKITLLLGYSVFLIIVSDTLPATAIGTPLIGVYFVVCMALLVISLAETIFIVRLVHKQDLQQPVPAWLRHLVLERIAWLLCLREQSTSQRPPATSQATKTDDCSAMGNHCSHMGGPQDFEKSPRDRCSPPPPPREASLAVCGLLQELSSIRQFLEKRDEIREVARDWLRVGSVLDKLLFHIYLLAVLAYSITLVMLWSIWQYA
Experimental: (§1) The site-directed mutation of one or two amino acids was performed using sense and antisense primers and Pfu polymerase (QuickChange Site-Directed Mutagenesis Kit; Agilent, Santa Clara, CA, USA) and amplified by polymerase chain reaction (PCR) to increase the target domain. After removing the existing methylated cDNA using Dpn Ⅰ, the PCR products were transformed into Escherichia coli strain DH5α. The cDNA of the 5-HT3A receptor was linearized by Xho Ⅰ at the end of the multi-cloning site, followed by transcription using T7 polymerase and a transcription kit (mMESSAGE mMACHINE T7 Transcription Kit; Thermo Fisher Scientific, Waltham, MA, USA). […]
(§2) To isolate oocytes, female Xenopus laevis were put into a container filled with ice and left for about one hour. […] When the Xenopus oocytes were ready for injection, 50 ng of mRNA was injected with a nanoliter injector (Drummond Scientific, Vernon Hills, IL, USA). […]
(§3) The oocytes in which mRNA was expressed during the incubation period allowed for the estimation of channel or receptor properties for observing drug and ligand potential interactions using a two-electrode voltage clamp (OC-725C; Warner Instruments, Hamden, CT, USA) and Digidata (1322A; Molecular Devices, Sunnyvale, CA, USA). […] The voltage and current electrodes were filled with 3 M KCl (0.3–0.7 MΩ) and analyzed at a −80 mV holding potential. […]

[2] = target: T2, 5-HT3A receptor Y153A mutant (Homo sapiens, UniProt P46098, Y148A); assay: two-electrode voltage clamp, Y153A mutant receptor in Xenopus oocytes; format: cell-based; details: 100 µM chanoclavine, read-out: Inhibition Percentage (%)
T2 construct: host or cells: Xenopus laevis oocytes injected with in vitro transcribed mRNA
T2 sequence (P46098 24-478 Y148A): T1 sequence (P46098 24-478 Y86A) with A63Y, Y125A
Experimental: as §1, §2, §3

[3] = target: T3, 5-HT3A receptor R196A mutant (Homo sapiens, UniProt P46098, R191A); assay: two-electrode voltage clamp, R196A mutant receptor in Xenopus oocytes; format: cell-based; details: 100 µM chanoclavine, read-out: Inhibition Percentage (%)
T3 construct: host or cells: Xenopus laevis oocytes injected with in vitro transcribed mRNA
T3 sequence (P46098 24-478 R191A): T1 sequence (P46098 24-478 Y86A) with A63Y, R168A
Experimental: as §1, §2, §3

[4] = test system: mice; set-up: method as in PMID 31052510; details: mice ref 32; cited from earlier work

Molecule `CN[C@@H]1Cc2c[nH]c3cccc(c23)[C@H]1/C=C(\C)CO` [chanoclavine] has an inhibition at 100 µM [1] of 50.2 ± 5.1%, an inhibition at 100 µM [2] of 56.9 ± 3.6% and an inhibition at 100 µM [3] of 82.1 ± 2.5%. The “toxicity (gross hematology, blood chemistry, pathology, histology)” value [4] was “low toxicity”.
